What was measured:
[1] = Deaths and body weight during treatment; assay type: in vivo, mice
Procedure: using individual calibration curves established with the corresponding tissue homogenates from untreated mice. The calibration curve was regressed with a weight of 1/x2 with high linearity (r2 […]
Spatial distribution of CDD-2807 in testis. The testis from the mice treated with CDD-2807 were attached to the Leica CM3050 S cryostat (Leica Biosystems, Deer Park, IL) with water and then sectioned at the thickness of 10 μm at −20°C. The sections were attached to electrically conductive glass slides coated with indium tin oxide ([…], 70-100 ohms, Delta Technologies, Loveland, CO). Tissue sections were sprayed with a matrix solution containing 35 mg/mL 2,5-dihydroxybenzoic acid (DHB, Sigma, St. Louis, MO) in 70% aqueous CH3OH with 0.1% trifluoroacetic acid using an HTX TM-Sprayer (HTX Technologies LLC, Carrboro, NC). Sprayer nozzle temperature was set at 70°C, tray temperature at 40°C, nozzle velocity at 1200 mm/min, track spacing at 2 mm, drying time for 10 sec and nitrogen gas pressure at 10 psi. The data were collected on the Bruker TimsTOF MS MALDI-2 instrument with the resolution at 40 µm/pixel (mass range 100−1000 Da under the positive mode) using DHB ion as the on-line calibrant. The data was analyzed, and the images were plotted by SciLs Lab software (Bruker, Billerica, MA). […]
Alanine transaminase (ALT) and aspartate transaminase (AST) assays. […] ALT and AST levels were measured in duplicates using assay kits (StanBio, Boerne, TX) according to the manufacturer's instructions. ALT and AST levels were determined using the rate of NADH oxidation, which was quantified by measuring absorbance at 340 nm using a CLARIOstar plate reader (BMG Labtech in Cary, NC). ALT and AST were tested for significance at multiple collection time points, tests for significance included a test for normality (Shapiro-Wilk test) and following the test for normality were then analyzed using an unpaired t-test with significance determined by an alpha of P = 0.05. […]
Fertility analysis. […] Weights were measured daily prior to drug administration and monitored throughout the entirety of the injection period. […]

RET = RET (Homo sapiens, UniProt P07949); experiment: NanoBRET K192 assay (Promega); assay type: cell-based; set-up: host or cells: HEK293 (HEK293T cultured); details: HEK293 cells
Procedure: (§1) NanoBRET Target Engagement K192 assay. HEK293 cells (ATCC) were cultured in DMEM (Gibco) + 10% FBS (Seradigm) and incubated in a humidified 37°C/5% CO2 incubator. The NanoBRET Target Engagement K192 Kinase Selectivity System (Promega) contains 192 unique transfection-ready NanoLuc/Kinase fusions, pre-diluted in either transfection carrier DNA or relevant cyclin DNA. These NanoLuc/Kinase fusion constructs were transfected into HEK293 cells using Fugene HD (Promega) according to the manufacturer’s protocol. Briefly, 10 µL of a 20 µg/mL DNA solution was added to white, TC-treated 96-well assay plates (Corning), followed by 30 µL of a diluted Fugene HD solution (20 µL Fugene/1 mL Opti-MEM). After transfection complex formation, HEK293 cells were resuspended at 3.3 × 105 c/mL in Opti-MEM + 1% FBS and added at a volume of 60 µL per well, to result in approximately 20000 cells/well. Cells were incubated in a humidified 37°C/5% CO2 incubator for 20 hours. Tracer K-10 (Promega) was prepared at a 100× concentration in DMSO (Sigma) and diluted to a working concentration of 10× in tracer dilution buffer (12.5 mM HEPES, 31.25% PEG400, pH 7.5) (Promega). Test compounds were prepared as concentrated stock solutions in DMSO and diluted in Opti-MEM to prepare 10× working stocks. Cells were equilibrated with test compounds and Tracer K-10 for 2 hours prior to BRET measurements. For target engagement analysis, Tracer K-10 was added to cells at one of 4 […]
(§2) manufacturer’s protocol. To measure BRET, NanoBRET NanoGlo Substrate and Extracellular NanoLuc Inhibitor (Promega) were added according to the manufacturer’s protocol, and filtered luminescence was measured on a GloMax Discover luminometer equipped with 450 nm BP filter (donor) and 600 nm LP filter (acceptor), using 0.5 s integration time. Milli-BRET units are calculated by multiplying the raw BRET units by 1000.
(§3) For Fractional Occupancy determination, the following equation was used:
(§4) % Occupancy = [1-(X-Z)/(Y-Z)]×100
(§5) Where X = BRET in the presence of the test compound and Tracer K10, Y = BRET in the presence of Tracer K10 only, and Z = Full occupancy, or BRET in the absence of the test compound and […]
(§6) Tracer K10. […]

CLK4 = CLK4 (Homo sapiens, UniProt Q9HAZ1); experiment: NanoBRET K192 assay (Promega); assay type: cell-based; set-up: host or cells: HEK293 (HEK293T cultured); details: HEK293 cells
Procedure: as §1, §2, §3, §4, §5, §6

CLK2 = CLK2 (Homo sapiens, UniProt P49760); experiment: NanoBRET K192 assay (Promega); assay type: cell-based; set-up: host or cells: HEK293 (HEK293T cultured); details: HEK293 cells
Procedure: as §1, §2, §3, §4, §5, §6

STK33 = STK33 (Homo sapiens, UniProt Q9BYT3); experiment: NanoBRET K192 assay (Promega); assay type: cell-based; set-up: host or cells: HEK293 (HEK293T cultured); details: HEK293 cells
Procedure: as §1, §2, §3, §4, §5, §6

Chain of CLK4 (Q9HAZ1 whole entry): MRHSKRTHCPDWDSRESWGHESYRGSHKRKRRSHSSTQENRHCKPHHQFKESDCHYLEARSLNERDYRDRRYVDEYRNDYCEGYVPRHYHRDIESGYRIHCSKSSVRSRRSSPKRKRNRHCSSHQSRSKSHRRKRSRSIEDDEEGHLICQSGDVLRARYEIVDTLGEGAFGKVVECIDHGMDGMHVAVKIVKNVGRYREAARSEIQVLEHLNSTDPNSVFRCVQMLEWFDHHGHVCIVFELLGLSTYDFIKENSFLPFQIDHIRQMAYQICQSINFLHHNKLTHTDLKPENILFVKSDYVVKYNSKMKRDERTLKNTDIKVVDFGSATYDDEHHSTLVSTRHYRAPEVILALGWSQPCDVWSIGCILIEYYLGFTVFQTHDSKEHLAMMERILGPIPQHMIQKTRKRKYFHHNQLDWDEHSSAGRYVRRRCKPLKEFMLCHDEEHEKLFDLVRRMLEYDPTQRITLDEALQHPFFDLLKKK
Chain of CLK2 (P49760 whole entry): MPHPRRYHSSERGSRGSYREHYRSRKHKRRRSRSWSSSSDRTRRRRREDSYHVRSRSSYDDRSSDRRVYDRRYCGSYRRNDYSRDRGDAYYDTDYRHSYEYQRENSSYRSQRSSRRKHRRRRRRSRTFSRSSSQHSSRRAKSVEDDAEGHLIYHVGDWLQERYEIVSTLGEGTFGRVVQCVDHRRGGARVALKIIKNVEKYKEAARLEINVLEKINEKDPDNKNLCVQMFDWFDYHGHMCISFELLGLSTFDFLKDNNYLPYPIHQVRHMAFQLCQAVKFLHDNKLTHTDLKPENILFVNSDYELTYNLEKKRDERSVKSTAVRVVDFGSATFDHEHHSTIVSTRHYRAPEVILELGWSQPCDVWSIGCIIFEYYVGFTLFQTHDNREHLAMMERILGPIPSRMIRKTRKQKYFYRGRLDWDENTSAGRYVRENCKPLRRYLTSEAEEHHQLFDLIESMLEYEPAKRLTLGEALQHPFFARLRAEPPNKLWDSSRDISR
Chain of RET (P07949 29-1114): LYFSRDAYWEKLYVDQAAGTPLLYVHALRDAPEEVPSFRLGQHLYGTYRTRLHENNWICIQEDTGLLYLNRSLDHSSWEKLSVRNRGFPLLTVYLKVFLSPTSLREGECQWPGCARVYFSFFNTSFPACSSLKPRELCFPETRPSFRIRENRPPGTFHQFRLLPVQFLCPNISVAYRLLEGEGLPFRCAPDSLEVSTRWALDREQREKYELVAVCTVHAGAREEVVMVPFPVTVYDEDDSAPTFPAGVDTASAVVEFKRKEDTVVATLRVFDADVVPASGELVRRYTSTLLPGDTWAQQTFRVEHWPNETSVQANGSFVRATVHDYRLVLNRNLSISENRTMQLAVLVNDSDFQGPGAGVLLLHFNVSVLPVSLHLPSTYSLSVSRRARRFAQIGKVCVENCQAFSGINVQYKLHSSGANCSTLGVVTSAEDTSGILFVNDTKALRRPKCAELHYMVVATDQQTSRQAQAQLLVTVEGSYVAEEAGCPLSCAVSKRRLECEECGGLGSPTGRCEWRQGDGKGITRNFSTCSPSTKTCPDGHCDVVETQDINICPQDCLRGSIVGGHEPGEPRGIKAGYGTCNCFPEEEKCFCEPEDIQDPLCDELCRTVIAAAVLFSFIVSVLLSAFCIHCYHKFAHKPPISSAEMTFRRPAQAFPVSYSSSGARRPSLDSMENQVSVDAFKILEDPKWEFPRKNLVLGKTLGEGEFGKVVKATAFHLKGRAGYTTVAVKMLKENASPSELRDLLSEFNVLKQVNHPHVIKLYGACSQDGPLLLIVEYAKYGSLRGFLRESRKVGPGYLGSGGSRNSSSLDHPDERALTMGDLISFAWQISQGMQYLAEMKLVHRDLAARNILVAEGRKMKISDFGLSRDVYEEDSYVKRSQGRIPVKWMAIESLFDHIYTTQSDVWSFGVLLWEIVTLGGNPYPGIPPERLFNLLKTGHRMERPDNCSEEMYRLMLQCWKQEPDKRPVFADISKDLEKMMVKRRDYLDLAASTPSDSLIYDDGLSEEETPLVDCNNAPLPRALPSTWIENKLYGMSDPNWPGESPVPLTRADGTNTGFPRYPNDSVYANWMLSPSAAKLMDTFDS
Chain of STK33 (Q9BYT3 whole entry): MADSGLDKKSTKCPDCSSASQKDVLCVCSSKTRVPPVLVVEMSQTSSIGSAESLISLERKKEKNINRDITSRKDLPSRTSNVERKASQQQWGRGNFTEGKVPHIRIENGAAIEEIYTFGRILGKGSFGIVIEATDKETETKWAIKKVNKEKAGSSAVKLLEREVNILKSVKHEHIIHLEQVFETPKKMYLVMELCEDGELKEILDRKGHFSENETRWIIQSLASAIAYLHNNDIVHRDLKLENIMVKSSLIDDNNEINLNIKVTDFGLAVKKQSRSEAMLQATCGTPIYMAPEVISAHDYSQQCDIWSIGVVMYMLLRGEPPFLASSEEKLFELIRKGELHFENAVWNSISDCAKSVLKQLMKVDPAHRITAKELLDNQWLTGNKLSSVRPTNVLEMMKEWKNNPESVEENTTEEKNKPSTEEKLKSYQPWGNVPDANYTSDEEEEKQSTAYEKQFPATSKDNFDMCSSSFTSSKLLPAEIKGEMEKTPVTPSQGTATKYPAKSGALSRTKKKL

**Q.** For `O=C(c1ccc2[nH]nc(C#Cc3ccccc3-c3ccccc3)c2c1)N1CC2(CCCNC2)C1` [CDD-2807], which mouse body weights ([1]; 50 mg/kg/day for 7 days (Protocol 3)) is on record?
**A.** 27.05 ± 0.79 g

**Q.** And the “deaths during the period of treatment” value ([1]; protocols 1 and 2)?
**A.** no deaths

**Q.** What about the “weight changes during the period of treatment” value ([1]; protocols 1 and 2) of the same compound?
**A.** no significant weight changes

**Q.** What about the receptor occupancy at 1 µM (RET; HEK293, at 1 µM) of the same compound?
**A.** 85.8 ± 0.2%

**Q.** And the “NanoBRET K192 assay % Occupancy RET” value (RET; at 1 µM)?
**A.** > 80%

**Q.** And the receptor occupancy at 1 µM (CLK4; HEK293, at 1 µM)?
**A.** 94.7 ± 0.1%

**Q.** What about the “NanoBRET K192 assay % Occupancy CLK4” value (CLK4; at 1 µM) of the same compound?
**A.** > 80%

**Q.** What about the receptor occupancy at 1 µM (CLK2; HEK293, at 1 µM) of the same compound?
**A.** 89.7%

**Q.** And the “NanoBRET K192 assay % Occupancy CLK2” value (CLK2; at 1 µM)?
**A.** > 80%

**Q.** And the receptor occupancy at 1 µM (STK33)?
**A.** 95.9%
